The species entered for experiment [1] is Cavia porcellus. Kind of experiment: Concentration-Relaxation Studies was exerted on Guinea Pig Tracheal Rings Precontracted by Carbachol by the compound in presence of Adenosine antagonist CSC ( E-4 M). It counts as functional, organism-based. The following applies: Trachea.
The species named for experiment [2] is Cavia porcellus. Put plainly: Concentration-Relaxation Studies was exerted on Guinea Pig Tracheal Rings Precontracted by Carbachol by the compound in presence of Adenosine antagonist 8-PT ( E-4 M). Type of experiment: functional, organism-based. The following applies: Trachea.
For experiment [3], the species on record is Cavia porcellus. Put plainly: Concentration-Relaxation Studies was exerted on Guinea Pig Tracheal Rings Precontracted by Carbachol by the compound in presence of Adenosine antagonist DMPX ( E-4 M). Type of experiment: functional, organism-based. The following applies: Trachea.
The species entered for experiment [4] is Cavia porcellus. Kind of experiment: Concentration-Relaxation Studies was exerted on Guinea Pig Tracheal Rings Precontracted by Carbachol by the compound in presence of Adenosine antagonist Alloxazine ( E-4 M). Type of experiment: functional, organism-based. The following applies: Trachea.
The target in a further experiment is T1, Adenosine receptor A1 (Homo sapiens, UniProt P30542).
T1 sequence (P30542 whole entry): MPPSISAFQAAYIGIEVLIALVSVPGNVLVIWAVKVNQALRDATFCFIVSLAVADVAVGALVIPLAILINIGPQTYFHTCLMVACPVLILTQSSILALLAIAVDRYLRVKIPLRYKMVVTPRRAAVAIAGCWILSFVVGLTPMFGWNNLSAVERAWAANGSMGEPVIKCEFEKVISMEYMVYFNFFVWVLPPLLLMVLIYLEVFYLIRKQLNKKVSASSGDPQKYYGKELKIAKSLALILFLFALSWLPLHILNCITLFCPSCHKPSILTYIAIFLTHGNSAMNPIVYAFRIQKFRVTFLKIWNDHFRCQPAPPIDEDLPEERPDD
Put plainly: Inhibition of [3H]DPCPX binding to human adenosine A1 receptor expressed in CHO cells. Type of experiment: cell-based.

Experiment [5] addresses T2, Adenosine receptor A2a (Homo sapiens, UniProt P29274).
Description: Potency against cAMP formation in CHO cells expressing recombinant human A2A receptor
The target of experiment [6] is Adenosine receptor A2a (Rattus norvegicus, UniProt P30543).
Chain of Adenosine receptor A2a (Rattus norvegicus, UniProt P30543) (P30543 whole entry): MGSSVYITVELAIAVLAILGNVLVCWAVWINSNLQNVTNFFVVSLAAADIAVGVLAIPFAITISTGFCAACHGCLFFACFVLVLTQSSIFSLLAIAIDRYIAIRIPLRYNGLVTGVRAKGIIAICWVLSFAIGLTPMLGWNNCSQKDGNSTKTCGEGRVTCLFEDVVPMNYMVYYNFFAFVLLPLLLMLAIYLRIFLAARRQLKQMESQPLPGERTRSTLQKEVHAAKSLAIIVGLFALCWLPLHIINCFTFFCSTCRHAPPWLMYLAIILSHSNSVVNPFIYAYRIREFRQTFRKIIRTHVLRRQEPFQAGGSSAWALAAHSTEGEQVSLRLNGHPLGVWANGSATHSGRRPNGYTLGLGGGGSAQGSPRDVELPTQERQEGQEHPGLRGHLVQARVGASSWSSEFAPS
Description: Efficacy against phenylephrine precontracted tissue relaxation in rat aorta
Experiment [7] has as its target T2, Adenosine receptor A2a. Kind of experiment: biochemical.
Description: Inhibition of [3H]ZM-241385 binding to human adenosine A2A receptor expressed in HeLa cells
The target of experiment [8] is T3, Adenosine receptor A2b (Homo sapiens, UniProt P29275).
T3 sequence (P29275 whole entry): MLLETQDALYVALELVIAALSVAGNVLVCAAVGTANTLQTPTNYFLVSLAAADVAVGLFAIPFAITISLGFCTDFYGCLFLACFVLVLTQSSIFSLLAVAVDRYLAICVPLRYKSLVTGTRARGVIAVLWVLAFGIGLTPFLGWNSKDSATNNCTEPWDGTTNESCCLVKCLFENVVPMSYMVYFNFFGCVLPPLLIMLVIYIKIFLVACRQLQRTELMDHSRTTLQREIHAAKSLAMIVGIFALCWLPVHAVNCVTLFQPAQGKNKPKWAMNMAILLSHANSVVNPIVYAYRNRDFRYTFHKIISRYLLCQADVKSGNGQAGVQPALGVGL
Put plainly: Potency against cAMP formation in CHO cells expressing recombinant human A2B receptor. It counts as functional, cell-based.

Experiment [9] addresses T3, Adenosine receptor A2b. Kind of experiment: Inhibition of [3H]DPCPX binding to human adenosine A2B receptor expressed in HEK293 cells. It counts as cell-based.
In the next experiment the target is T4, Adenosine receptor A3 (Homo sapiens, UniProt P0DMS8).
T4 sequence (P0DMS8 whole entry): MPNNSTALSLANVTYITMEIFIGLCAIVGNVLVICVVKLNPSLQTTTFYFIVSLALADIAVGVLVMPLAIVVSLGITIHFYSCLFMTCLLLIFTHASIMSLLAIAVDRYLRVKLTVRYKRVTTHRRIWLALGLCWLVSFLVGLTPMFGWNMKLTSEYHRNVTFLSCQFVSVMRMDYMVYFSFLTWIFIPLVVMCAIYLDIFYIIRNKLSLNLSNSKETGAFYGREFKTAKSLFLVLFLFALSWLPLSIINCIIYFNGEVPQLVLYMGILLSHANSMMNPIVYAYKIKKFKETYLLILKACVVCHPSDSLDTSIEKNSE
Kind of experiment: Inhibition of [3H]NECA binding to human adenosine A3 receptor expressed in HeLa cells. Type of experiment: cell-based.

Experiment [10] addresses Adenosine receptor A2b (Cavia porcellus). Put plainly: Relative efficacy against phenylephrine precontracted tissue relaxation in Guinea pig aorta.
In experiment [11] the test system is Adenosine receptor A2b (Cavia porcellus). Kind of experiment: Relative efficacy against phenylephrine precontracted tissue relaxation in Guinea pig aorta compared to NECA.

SMILES strings stand for the structures.

T2 sequence (P29274 whole entry): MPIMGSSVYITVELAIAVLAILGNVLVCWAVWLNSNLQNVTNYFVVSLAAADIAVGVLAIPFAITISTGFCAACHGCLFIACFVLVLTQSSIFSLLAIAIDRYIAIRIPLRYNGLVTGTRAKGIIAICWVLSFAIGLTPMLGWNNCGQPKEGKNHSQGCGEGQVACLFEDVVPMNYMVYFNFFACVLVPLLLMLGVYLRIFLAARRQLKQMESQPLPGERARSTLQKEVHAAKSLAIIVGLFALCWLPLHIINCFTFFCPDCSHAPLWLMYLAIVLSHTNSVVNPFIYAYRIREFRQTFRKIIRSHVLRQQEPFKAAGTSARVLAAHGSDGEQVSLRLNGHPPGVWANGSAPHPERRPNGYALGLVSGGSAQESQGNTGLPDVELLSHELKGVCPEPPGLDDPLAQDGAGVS

For the compound `CCn1nnc([C@H]2O[C@@H](n3cnc4c(N)nc(N[C@H](CO)Cc5ccccc5)nc43)[C@H](O)[C@@H]2O)n1` [GW-328267], the EC50 in the experiment listed under Cavia porcellus [1] stood at 51000 nM; in the experiment listed under Cavia porcellus [2] it was 64000 nM; in the experiment listed under Cavia porcellus [3] it was 46000 nM; in the experiment filed under Cavia porcellus [4] it was 88000 nM; at Adenosine receptor A2a [5], 8.8 nM; at Adenosine receptor A2a [6] it was 10 nM. Besides, the Ki on Adenosine receptor A1 was 369 nM; at Adenosine receptor A2a [7], 46 nM.

For `CCn1nnc([C@H]2O[C@@H](n3cnc4c(N)nc(N[C@H](CO)Cc5ccc([N+](=O)[O-])cc5)nc43)[C@H](O)[C@@H]2O)n1`, the concentration giving a half-maximal response (EC50) at Adenosine receptor A2b [8] stood at 1200 nM; on Adenosine receptor A2a [5], 3.1 nM. Also, the Ki at Adenosine receptor A2b [9] was 3660 nM; at Adenosine receptor A1 it was over 10000 nM; on Adenosine receptor A3 it was 400 nM; on Adenosine receptor A2a [7] it was 48 nM.

With `Nc1ncnc2c1ncn2[C@@H]1O[C@H](CO)[C@@H](O)[C@H]1O` [ADENOSINE], the concentration for a half-maximal effect (EC50) was 570000 nM in the experiment listed under Cavia porcellus [1], 460000 nM in the experiment filed under Cavia porcellus [2], 340000 nM in the experiment listed under Cavia porcellus [3] and 550000 nM in the experiment filed under Cavia porcellus [4].

As for `CCn1nnc([C@H]2O[C@@H](n3cnc4c(N)nc(N[C@H](C)Cc5ccc(OC)cc5)nc43)[C@H](O)[C@@H]2O)n1`, the half-maximal effective concentration (EC50) in the experiment filed under Cavia porcellus [1] was 26000 nM; in the experiment listed under Cavia porcellus [3] it was 23000 nM; in the experiment listed under Cavia porcellus [4], 15000 nM; at Adenosine receptor A2a [5], 3 nM; at Adenosine receptor A2a [6], 4 nM. The Ki at Adenosine receptor A1 was determined as 356 nM; on Adenosine receptor A3, 100 nM; at Adenosine receptor A2a [7], 1 nM.

Take `CCn1nnc([C@H]2O[C@@H](n3cnc4c(N)nc(N[C@H](CO)Cc5ccc(Cl)cc5)nc43)[C@H](O)[C@@H]2O)n1`: the half-maximal effective concentration (EC50) at Adenosine receptor A2b [8] came out at 4700 nM; in the experiment listed under Cavia porcellus [1] it was 17000 nM; in the experiment listed under Cavia porcellus [4] it was 38000 nM; on Adenosine receptor A2a [5], 97 nM. Besides, the Ki on Adenosine receptor A2b [9] was 2720 nM; on Adenosine receptor A1, 670 nM; on Adenosine receptor A3, 288 nM; on Adenosine receptor A2a [7] it was 270 nM.

For `CCNC(=O)[C@H]1O[C@@H](n2cnc3c(N)ncnc32)[C@H](O)[C@@H]1O` [NECA], the EC50 came to 84000 nM in the experiment filed under Cavia porcellus [1], 65000 nM in the experiment filed under Cavia porcellus [2], 77000 nM in the experiment filed under Cavia porcellus [3] and 88000 nM in the experiment listed under Cavia porcellus [4].

Take `CCn1nnc([C@H]2O[C@@H](n3cnc4c(N)nc(N[C@H](CO)Cc5ccc(O)cc5)nc43)[C@H](O)[C@@H]2O)n1`: the Ki at Adenosine receptor A3 is 140 nM; at Adenosine receptor A2a [7], 5 nM. For the same compound, the concentration giving a half-maximal response (EC50) on Adenosine receptor A2a [5] was 8 nM; at Adenosine receptor A2a [6], 2.9 nM.

In the case of `CCn1nnc([C@H]2O[C@@H](n3cnc4c(N)nc(N[C@H](CO)Cc5ccc(OC)cc5)nc43)[C@H](O)[C@@H]2O)n1`, the concentration for a half-maximal effect (EC50) on Adenosine receptor A2b [8] worked out at 680 nM; in the experiment listed under Cavia porcellus [1], 22000 nM; in the experiment filed under Cavia porcellus [3], 36000 nM; in the experiment filed under Cavia porcellus [4], 36000 nM; on Adenosine receptor A2a [5], 1.4 nM. The Ki was 1180 nM on Adenosine receptor A2b [9], over 10000 nM at Adenosine receptor A1, 130 nM at Adenosine receptor A3 and 38 nM on Adenosine receptor A2a [7].

Take `CCn1nnc([C@H]2O[C@@H](n3cnc4c(N)nc(N[C@H](CO)Cc5ccc(Br)cc5)nc43)[C@H](O)[C@@H]2O)n1`: the concentration giving a half-maximal response (EC50) at Adenosine receptor A2b [8] worked out at 560 nM; on Adenosine receptor A2a [5], 1.6 nM; at Adenosine receptor A2a [6], 6.7 nM; in experiment [10], 1300 nM. Also, the Ki at Adenosine receptor A2b [9] is 2260 nM; at Adenosine receptor A1, 310 nM; at Adenosine receptor A3 it was 83 nM; on Adenosine receptor A2a [7] it was 5 nM. This compound also showed a maximal effect (Emax) in [11] of 125%.

These data come from ChEMBL document CHEMBL1137202, “Synthesis and biological activity of new potential agonists for the human adenosine A2A receptor” (J Med Chem, 2004).
